Results: patent US9826761B2, “Compositions and methods for mitigating dietary sulfur in animals” (SarTec Corporation, priority 2008, dated 2017)

Assay: Titration of approx. 200 mM sulfide in fresh rumen fluid with 1 M metal chloride, silver/sulfide electrode
Design: species or system Holstein cows
Details: for mVolts (Negative Value): ~200 mM sulfide, fresh rumen fluid
Protocol: Fresh undiluted rumen fluid was obtained from rumen fistulated Holstein cows. 1.5 ml of a saturated solution of Na2S in water (approximately 2.7 M) was added to 18.5 ml of the rumen fluid. Sodium sulfide solutions were quantified by titration using a silver/sulfide electrode (Orion, Ion Plus Silver/Sulfide 9616BNWP) and a commercial lead standard (0.1 M Pb^2+, Orion 948206). The final concentration for sulfide ion in the rumen fluid was approximately 200 mM. This solution was then titrated with a 1 M solution of MnCl2 in water. The progress of the reaction was followed using the silver/sulfide electrode.
Fresh undiluted rumen fluid was obtained from rumen fistulated Holstein cows. 1.5 ml of saturated solution of Na2S in water (approximately 2.7 M) was added to 18.5 ml of the rumen fluid. The final concentration of sulfide ion in the rumen fluid was approximately 200 mM. This solution was then titrated with a 1 M solution of FeCl2 in water. The progress of the reaction was followed using the same silver/sulfide electrode set-up described above (Orion, Ion Plus Silver/Sulfide 9616BNWP).
Data taken from Examples 1 and 2 above were plotted together in order to gauge the relative efficacy of MnCl2 versus FeCl2 in removing sulfide ion from rumen fluid.

[Cl][Fe][Cl] [FeCl2, iron (II) chloride]
concentration of sulfide ion within the rumen fluid (addition of 1 M titrant to ~200 mM sulfide in fresh rumen fluid): effective to reduce the concentration of sulfide ion | total sulfide ion concentrations in the rumen fluid, FeCl2 versus MnCl2 (data of Examples 1 and 2 plotted together (FIG. 3)): lower total sulfide ion concentrations | mVolts (Negative Value) (titrant volume 0.0 of 1M FeCl2): 937.5 mVolts | mVolts (Negative Value) (titrant volume 0.1 of 1M FeCl2): 937.5 mVolts | mVolts (Negative Value) (titrant volume 0.4 of 1M FeCl2): 935.1 mVolts | mVolts (Negative Value) (titrant volume 0.6 of 1M FeCl2): 906.2 mVolts | mVolts (Negative Value) (titrant volume 0.8 of 1M FeCl2): 926.7 mVolts | mVolts (Negative Value) (titrant volume 1.0 of 1M FeCl2): 916.9 mVolts | mVolts (Negative Value) (titrant volume 1.3 of 1M FeCl2): 905.8 mVolts | mVolts (Negative Value) (titrant volume 1.5 of 1M FeCl2): 886.6 mVolts | mVolts (Negative Value) (titrant volume 1.7 of 1M FeCl2): 869.4 mVolts | mVolts (Negative Value) (titrant volume 1.9 of 1M FeCl2): 849.4 mVolts | mVolts (Negative Value) (titrant volume 2.1 of 1M FeCl2): 833.9 mVolts | mVolts (Negative Value) (titrant volume 2.4 of 1M FeCl2): 817.3 mVolts | mVolts (Negative Value) (titrant volume 2.6 of 1M FeCl2): 816.8 mVolts | mVolts (Negative Value) (titrant volume 2.8 of 1M FeCl2): 767.2 mVolts | mVolts (Negative Value) (titrant volume 3.0 of 1M FeCl2): 735.5 mVolts | mVolts (Negative Value) (titrant volume 3.5 of 1M FeCl2): 634.0 mVolts | mVolts (Negative Value) (titrant volume 3.7 of 1M FeCl2): 622.8 mVolts | mVolts (Negative Value) (titrant volume 3.9 of 1M FeCl2): 616.3 mVolts | mVolts (Negative Value) (titrant volume 4.1 of 1M FeCl2): 610.8 mVolts | mVolts (Negative Value) (titrant volume 4.3 of 1M FeCl2): 607.2 mVolts | mVolts (Negative Value) (titrant volume 4.5 of 1M FeCl2): 603.3 mVolts | mVolts (Negative Value) (titrant volume 4.8 of 1M FeCl2): 600.0 mVolts | mVolts (Negative Value) (titrant volume 5.0 of 1M FeCl2): 595.7 mVolts | mVolts (Negative Value) (titrant volume 5.5 of 1M FeCl2): 590.0 mVolts | mVolts (Negative Value) (titrant volume 6.0 of 1M FeCl2): 586.5 mVolts
